Results as given in the NIST ThermoML archive (doi:10.1016/j.tca.2008.02.015).

Test: excess molar enthalpy (molar enthalpy of mixing); xn = mol fraction of the nth substance listed
Conditions: 298.15 K, 101 kPa, Liquid, Calvet calorimetry

COP(=O)(OC)OC [trimethyl orthophosphate] + CCCCO
Conditions	excess molar enthalpy [kcal/mol]
x1 = 0.0497	0.0957
x1 = 0.1005	0.176
x1 = 0.1531	0.24
x1 = 0.2071	0.292
x1 = 0.2625	0.322
x1 = 0.3199	0.344
x1 = 0.3794	0.353
x1 = 0.439	0.351
x1 = 0.5024	0.345
x1 = 0.5663	0.329
x1 = 0.6329	0.311
x1 = 0.7016	0.271
x1 = 0.7727	0.222
x1 = 0.8458	0.162
x1 = 0.9216	0.088

COP(=O)(OC)OC [trimethyl orthophosphate] + CCCO
Conditions	excess molar enthalpy [kcal/mol]
x1 = 0.0408	0.0654
x1 = 0.0836	0.126
x1 = 0.1284	0.173
x1 = 0.1753	0.212
x1 = 0.225	0.235
x1 = 0.2769	0.256
x1 = 0.3319	0.279
x1 = 0.39	0.293
x1 = 0.4508	0.296
x1 = 0.5139	0.282
x1 = 0.5701	0.27
x1 = 0.6274	0.246
x1 = 0.6875	0.219
x1 = 0.7351	0.197
x1 = 0.7834	0.167
x1 = 0.8518	0.117
x1 = 0.9054	0.0789
x1 = 0.9614	0.0416

COP(=O)(OC)OC [trimethyl orthophosphate] + CCO
Conditions	excess molar enthalpy [kcal/mol]
x1 = 0.0322	0.0369
x1 = 0.0665	0.0735
x1 = 0.1032	0.109
x1 = 0.1426	0.132
x1 = 0.185	0.151
x1 = 0.2305	0.168
x1 = 0.2796	0.179
x1 = 0.3327	0.197
x1 = 0.3671	0.208
x1 = 0.4156	0.209
x1 = 0.454	0.205
x1 = 0.5232	0.192
x1 = 0.6	0.171
x1 = 0.6836	0.144
x1 = 0.7775	0.111
x1 = 0.8821	0.0625
x1 = 0.928	0.0422
x1 = 0.9752	0.021

COP(=O)(OC)OC [trimethyl orthophosphate] + CO
Conditions	excess molar enthalpy [kcal/mol]
x1 = 0.037	0.0118
x1 = 0.0739	0.0211
x1 = 0.1033	0.0268
x1 = 0.1428	0.0329
x1 = 0.1876	0.0357
x1 = 0.2569	0.054
x1 = 0.3086	0.0508
x1 = 0.3658	0.048
x1 = 0.4047	0.0444
x1 = 0.4619	0.0414
x1 = 0.51	0.0352
x1 = 0.562	0.0302
x1 = 0.6405	0.0236
x1 = 0.7079	0.0156
x1 = 0.783	0.0102
x1 = 0.8383	0.00676
x1 = 0.9	0.00333
x1 = 0.9647	0.000473
